Measurements reported in US8372967B2, “Compounds and methods for modulating expression of GCCR” (Isis Pharmaceuticals, Inc., priority 2006, dated 2013).
Strand notation (5' to 3'): a small letter for the sugar, then the base; units joined by * are phosphorothioate-linked, units joined directly phosphodiester-linked; [ ] holds rarer units or linkages, { } end groups; capitals alone tell only the bases. [PAM-N] = nucleoside carrying a 2'-(butylacetamido)-palmitamide group (palmitic acid C16 conjugate) (N: the base); e = 2'-O-(2-methoxyethyl) (MOE); [5mC] = 5-methylcytosine; d = 2'-deoxy (DNA)

Key:
[1] = tested on: GCGR mRNA; experiment: Antisense inhibition of GCGR in HepG2 cells (Table 79); format: cell-based, human; settings: HepG2 cells, relative to untreated control cells
Description: Short antisense compounds targeted to a GCGR nucleic acid were tested for their effects on GCGR mRNA in vitro.
Cultured HepG2 cells at a density of 10000 cells per well in a 96-well plate were treated as described herein with 25, 50, 100 or 200 nM of antisense oligonucleotide. After the treatment period, RNA was isolated from the cells and GCGR mRNA levels were measured by quantitative real-time PCR, as described herein. GCGR mRNA levels were adjusted according to total RNA content as measured by RIBOGREEN®. Results are presented as percent reduction in GCGR mRNA, relative to untreated control cells.

[2] = tested on: monkey GCGR mRNA; experiment: Antisense inhibition of GCGR in primary monkey hepatocytes (Table 80); format: cell-based; settings: relative to untreated control cells
Description: Additional short antisense compounds targeted to a GCGR nucleic acid were tested for their effects on monkey GCGR mRNA in vitro. Cultured primary monkey hepatocytes were treated as described herein with 25, 50, 100 or 200 nM of short antisense compound. After the treatment period, RNA was isolated from the cells and GCGR mRNA levels were measured by quantitative real-time PCR, as described herein. GCGR mRNA levels were adjusted according to total RNA content as measured by RIBOGREEN®. Results are presented in Table 80 as percent reduction in GCGR mRNA, relative to untreated control cells.

[3] = HbA1c status in ZDF rat (Table 72); format: in vivo; settings: ZDF rat, 400 nM/kg i.p. once a week
Description: (§1) ISIS 388625, 388626 and control oligo ISIS 388628 were analyzed for their effect on ZDF rat plasma glucose levels and HbA1c. The leptin receptor deficient Zucker diabetic fatty (ZDF) rat is a useful model for the investigation of type 2 diabetes. Diabetes develops spontaneously in these male rats at ages 8-10 weeks, and is associated with hyperphagia, polyuria, polydipsia, and impaired weight gain, symptoms which parallel the clinical symptoms of diabetes (Phillips M S, et al., 1996, Nat Genet. 13, 18-19). Six week old ZDF rats were injected intraperitoneally with short antisense compound at a dose of 400 nM/kg once a week for twelve weeks. Data are illustrated in Tables 71 and 72.

[4] = Plasma glucose in ZDF rat (Table 71); format: in vivo; settings: ZDF rat, 400 nM/kg i.p. once a week
Description: as §1

[5] = tested on: ApoB mRNA; experiment: ApoB mRNA in liver and estimated ED50, compounds comprising palmitic acid conjugates (Table 95); format: in vivo, mouse; settings: ApoB mRNA in liver, Balb/c mice, relative to saline
Description: 0.4, and 0.16 umol/kg. Each dose group consisted of four animals. A 5-10-5 MOE gapmer was used for a control treatment. Mice were sacrificed approximately 48 hours following the final dose. Liver tissue was collected for RNA isolation, and blood was collected for serum chemistry analyses. ApoB mRNA levels were measured by real-time PCR as described herein. ApoB mRNA levels were normalized to RNA levels as determined by RIBOGREEN, and are presented in Table 95 as percent inhibition relative to ApoB mRNA levels in saline-treated control animals.
At the 2.5 umol/kg dose, ApoB inhibition by the short antisense compounds was greater than observed with a 5-10-5 MOE gapmer at an equivalent dose. […] Triglycerides were reduced at the 2.5 and […] doses of ISIS 387462 and ISIS 391872.

Substance: 327161 (antisense eA*eG*e[5mC]*dT*dG*d[5mC]*dT*dG*dT*dA*d[5mC]*eA*eT*e[5mC]) [compound 327161]
- percent reduction in GCGR mRNA ([1]; 25 nM): −36%
- percent reduction in GCGR mRNA ([1]; 50 nM): −30%
- percent reduction in GCGR mRNA ([1]; 100 nM): −33%
- percent reduction in GCGR mRNA ([1]; 200 nM): −64%
- percent reduction in GCGR mRNA ([2]; 25 nM): −19%
- percent reduction in GCGR mRNA ([2]; 50 nM): −33%
- percent reduction in GCGR mRNA ([2]; 100 nM): −55%
- percent reduction in GCGR mRNA ([2]; 200 nM): −54%

Substance: 388626 (eG*eG*d[5mC]*dA*dT*dG*dA*dG*d[5mC]*dT*eT*e[5mC]) [compound 388626]
- Percentage HbA1c ([3]; Day 40): 6.6%
- Percentage HbA1c ([3]; Day 55): 5.9%
- Percentage HbA1c ([3]; Day 68): 4.0%
- Plasma glucose levels ([4]; Day 10): 434.7 mg/dL
- Plasma glucose levels ([4]; Day 40): 300.5 mg/dL
- Plasma glucose levels ([4]; Day 55): 219.8 mg/dL
- Plasma glucose levels ([4]; Day 66): 379.8 mg/dL

Substance: 391871 ([PAM-G]*eG*dT*dA*dC*dA*dT*dG*dG*dA*dA*dG*eT*e[5mC]) [compound 391871]
- % Inhib ([5]; single i.p. injection 0.16 umol/kg): 0%
- % Inhib ([5]; single i.p. injection 0.4 umol/kg): 5%
- % Inhib ([5]; single i.p. injection 1.0 umol/kg): 18%
